Data from the NIST ThermoML archive (doi:10.1016/j.tca.2018.01.023).

Assay: molar heat capacity at constant pressure
Details: 101.33 kPa, Crystal, Small sample (50 mg) DSC

[Ca+2].[O]=[Mo](=[O])([O-])[O-] [calcium molybdate(VI)]
Details	molar heat capacity at constant pressure [J/K/mol]
395.5 K	127.3
396.4 K	127.5
396.5 K	127.4
397.4 K	127.6
397.5 K	127.6
398.4 K	127.6
398.5 K	127.7
399.4 K	127.7
399.5 K	127.8
400 K	127.9
400.4 K	127.8
400.5 K	127.9
401.4 K	127.9
401.5 K	128
402.4 K	128.1
402.5 K	128.1
403.4 K	128.2
403.5 K	128.2
404.4 K	128.3
404.5 K	128.3
405.4 K	128.5
405.5 K	128.3
406.4 K	128.6
406.5 K	128.4
407.4 K	128.7
407.5 K	128.5
408.4 K	128.7
408.5 K	128.6
409.4 K	128.8
409.5 K	128.7
410 K	128.9
410.4 K	128.9
410.5 K	128.8
411.4 K	129
411.5 K	128.9
412.4 K	129
412.5 K	129
413.4 K	129.1
413.5 K	129.1
414.4 K	129.2
414.5 K	129.2
415.4 K	129.4
415.5 K	129.3
416.4 K	129.5
416.5 K	129.4
417.4 K	129.6
417.5 K	129.5
418.4 K	129.7
418.5 K	129.6
419.4 K	129.8
419.5 K	129.7
420 K	129.8
420.4 K	129.9
420.5 K	129.8
421.4 K	130
421.5 K	129.9
422.4 K	130.1
422.5 K	130
423.4 K	130.2
423.5 K	130.1
424.4 K	130.3
424.6 K	130.1
425.4 K	130.4
425.6 K	130.2
426.4 K	130.5
426.6 K	130.3
427.4 K	130.6
427.6 K	130.4
428.4 K	130.7
428.6 K	130.5
429.4 K	130.7
429.6 K	130.7
430 K	130.7
430.4 K	130.8
430.6 K	130.9
431.4 K	130.8
431.6 K	131
432.4 K	130.8
432.6 K	131.1
433.4 K	130.9
433.6 K	131.2
434.4 K	130.9
434.6 K	131.3
435.4 K	131
435.6 K	131.3
436.4 K	131
436.6 K	131.3
437.4 K	131.1
437.6 K	131.4
438.4 K	131.2
438.6 K	131.4
439.4 K	131.3
439.6 K	131.4
440 K	131.5
440.4 K	131.4
440.6 K	131.5
441.4 K	131.5
441.6 K	131.6
442.4 K	131.6
442.6 K	131.7
443.4 K	131.7
443.6 K	131.9
444.4 K	131.7
444.6 K	132
445.4 K	131.8
445.6 K	132.2
446.4 K	132
446.6 K	132.3
447.4 K	132.1
447.6 K	132.4
448.4 K	132.2
448.6 K	132.5
449.4 K	132.3
449.6 K	132.6
450 K	132.4
450.4 K	132.4
450.6 K	132.6
451.4 K	132.5
451.6 K	132.6
452.4 K	132.5
452.6 K	132.7
453.4 K	132.6
453.6 K	132.7
454.4 K	132.7
454.6 K	132.7
455.4 K	132.7
455.6 K	132.7
456.4 K	132.8
456.6 K	132.7
457.4 K	132.9
457.6 K	132.8
458.4 K	133
458.7 K	132.9
459.4 K	133
459.7 K	133.1
460 K	133.2
460.4 K	133.1
460.7 K	133.2
461.4 K	133.2
461.7 K	133.4
462.4 K	133.3
462.7 K	133.5
463.4 K	133.4
463.7 K	133.6
464.4 K	133.5
464.7 K	133.7
465.4 K	133.6
465.7 K	133.7
466.4 K	133.6
466.7 K	133.8
467.4 K	133.7
467.7 K	133.8
468.4 K	133.8
468.7 K	133.9
469.4 K	133.9
469.7 K	133.9
470 K	133.9
470.4 K	134
470.7 K	133.9
471.4 K	134
471.7 K	134
472.4 K	134
472.7 K	134.1
473.4 K	134.1
473.7 K	134.2
474.4 K	134.1
474.7 K	134.3
475.4 K	134.1
475.7 K	134.4
476.4 K	134.2
476.7 K	134.4
477.4 K	134.2
477.7 K	134.4
478.4 K	134.4
478.7 K	134.5
479.4 K	134.5
479.7 K	134.6
480 K	134.6
480.4 K	134.6
480.7 K	134.7
481.4 K	134.7
481.7 K	134.7
482.4 K	134.8
482.7 K	134.7
483.4 K	134.9
483.7 K	134.8
484.4 K	135
484.7 K	134.9
485.4 K	135.1
485.7 K	135
486.4 K	135.2
486.7 K	135.1
487.4 K	135.2
487.7 K	135.1
488.4 K	135.3
488.7 K	135.2
489.4 K	135.4
489.7 K	135.2
490 K	135.3
490.4 K	135.4
490.7 K	135.3
491.4 K	135.5
491.7 K	135.4
492.4 K	135.5
492.7 K	135.6
493.4 K	135.5
493.8 K	135.7
494.4 K	135.5
494.8 K	135.7
